Values joined by “and” are separate entries in the source; they are usually repeats but may differ in a detail not shown here. Equal entries are not always repeated.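 Five compound concentrations were applied to cells in 96-well plates for 48 hours; endpoints were derived by simple linear interpolation of the resulting dose-response curve. At the GI50, growth is halved. TGI is the concentration that stops growth completely.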
Assays:
Test in all cases: DTP human tumour cell line panel, 48 h
HOP-62 NSCLC = system: HOP-62 NSCLC
NCI-H522 lung = system: NCI-H522 lung
OVCAR-4 ovarian = system: OVCAR-4 ovarian
OVCAR-8 ovarian = system: OVCAR-8 ovarian
SF-295 CNS = system: SF-295 CNS
SK-MEL-28 melanoma = system: SK-MEL-28 melanoma
SN12C renal = system: SN12C renal
SNB-75 CNS = system: SNB-75 CNS
UACC-62 melanoma = system: UACC-62 melanoma
MDA-MB-231 breast = system: MDA-MB-231 breast

Compound | TGI (HOP-62 NSCLC) | TGI (NCI-H522 lung) | TGI (OVCAR-4 ovarian) | TGI (OVCAR-8 ovarian) | TGI (SF-295 CNS) | TGI (SK-MEL-28 melanoma) | TGI (SN12C renal) | GI50 (SNB-75 CNS) | TGI (SNB-75 CNS) | TGI (UACC-62 melanoma) | TGI (MDA-MB-231 breast) | GI50 (NCI-H522 lung) | GI50 (OVCAR-8 ovarian) | GI50 (SF-295 CNS) | GI50 (SK-MEL-28 melanoma) | GI50 (SN12C renal) | GI50 (UACC-62 melanoma) | GI50 (MDA-MB-231 breast) | GI50 (OVCAR-4 ovarian) | GI50 (HOP-62 NSCLC)
O=C(C=Nc1ccccc1S)c1ccco1 | 15.2 µM | 28.8 µM | 26.4 µM | 27.3 µM | 18.8 µM | 30.1 µM | 21.5 µM | 17.7 µM | 31.9 µM | 29.5 µM |  |  |  |  |  |  |  |  |  | 
COc1c(C)c(OC)c(C(=O)CC(C)C)c(OC)c1C | > 100 µM | > 100 µM | > 100 µM | > 100 µM | > 100 µM | > 100 µM | > 100 µM |  |  | > 100 µM | > 100 µM |  |  |  |  |  |  |  |  | 
COc1cc(/C=C2\NC(=O)C3Cc4c(OC)c(C)c(OC)c(OC)c4C2N3C)c(OC)c(C)c1OC (stereo not drawn) | > 100 µM | > 100 µM | > 100 µM | > 100 µM | > 100 µM | > 100 µM | > 100 µM |  | > 100 µM | > 100 µM |  |  |  |  |  |  |  |  |  | 
CC(=O)[CH-]C(C)=O.CC(=O)[CH-]C(C)=O.[Cl-].[O]=[V] |  | > 100 µM |  | > 100 µM | 44.8 µM | > 100 µM | > 100 µM | 8.51 µM | 25.2 µM | 59.1 µM |  | > 100 µM | 46.4 µM | 12.1 µM | 25.7 µM | 58.1 µM | 20 µM |  |  | 
Cc1nc2ccccc2c(/C=C/c2ccccc2)c1C(=O)/C=C/c1ccc(C(F)(F)F)cc1 |  | 6.32 µM | 3.2 µM | 7.98 µM | 3.1 µM | 3.27 µM | 4.16 µM | 1.44 µM | 2.82 µM | 2.93 µM | 3.38 µM | 1.6 µM | 1.78 µM | 1.67 µM | 1.74 µM | 1.73 µM | 1.48 µM | 1.65 µM | 1.65 µM | 
O=C1c2cc3c(cc2-c2c1c1ccc(F)cc1c(=O)n2C[C@H](O)[C@H](O)[C@H](O)CO)OCO3 | 0.52 µM | 0.228 µM | 34.9 µM | 0.66 µM | 0.513 µM | 1.51 µM | 0.792 µM |  |  | 0.195 µM | 6.18 µM | 0.0313 µM | 0.203 µM | 0.0624 µM | 0.282 µM | 0.19 µM | 0.04 µM | 0.342 µM | 0.28 µM | 0.112 µM
[Co].[O-]c1cccnc1C=Nc1ccccc1.[OH3+] |  | > 100 µM | > 100 µM | > 100 µM |  | > 100 µM | > 100 µM | 49.7 µM | > 100 µM | > 100 µM |  | 39.3 µM | > 100 µM |  | 82.6 µM | > 100 µM | 86.1 µM |  | > 100 µM | 
CCOC(=O)c1c(-c2ccc(OC)c(O)c2)c(C#N)c(=S)n(C2OC(COC(C)=O)C(OC(C)=O)C(OC(C)=O)C2OC(C)=O)c1-c1ccccc1 (stereo not drawn) | 72.2 µM and > 100 µM | 45.7 µM | > 100 µM | > 100 µM | > 100 µM | > 100 µM | > 100 µM |  |  | 34.1 µM and > 100 µM |  |  |  |  | 32.5 µM and > 100 µM | 33.8 µM and > 100 µM | 17.1 µM and > 100 µM |  | 47.2 µM and > 100 µM | 26.5 µM and > 100 µM
CCOC(=O)CNC(=O)OCc1ccccc1 | > 100 µM | > 100 µM |  | > 100 µM | > 100 µM | > 100 µM | > 100 µM |  | > 100 µM | > 100 µM |  |  |  |  |  |  |  |  |  | 
NNc1nc2ccccc2o1 |  | > 100 µM | > 100 µM | > 100 µM |  | > 100 µM | > 100 µM |  | > 100 µM | > 100 µM | > 100 µM |  |  |  |  |  |  |  |  | 
O=C(O)CCSC(=O)Nc1cccc2ccccc12 | > 100 µM |  | > 100 µM | > 100 µM | > 100 µM | > 100 µM | > 100 µM |  | > 100 µM | > 100 µM |  |  |  |  |  |  |  |  |  | 
CN=C1CN=C(OP(=O)(N2CCOCC2)N2CCOCC2)c2cc(Cl)ccc2N1 |  | > 100 µM | > 100 µM | > 100 µM | > 100 µM | > 100 µM | > 100 µM |  | > 100 µM | > 100 µM |  |  |  |  |  |  |  |  |  | 
O=C(CC1(O)C(=O)Nc2ccccc21)c1ccc(Cl)cc1Cl (stereo not drawn) |  | > 100 µM | > 100 µM | > 100 µM | > 100 µM | > 100 µM | > 100 µM |  | > 100 µM | > 100 µM |  |  |  |  |  |  |  |  |  | 
O=C(CCCC(=O)N/N=C/c1cc(Cl)ccc1O)N/N=C\c1cc(Cl)ccc1O | > 100 µM | > 100 µM | > 100 µM | > 100 µM | > 100 µM | > 100 µM | > 100 µM | 8.16 µM | > 100 µM |  | 91.6 µM | 3.62 µM | 2.86 µM | 3.74 µM | 3.68 µM | 4.3 µM |  | 2.63 µM | 1.25 µM | 5.05 µM
CO/C=C(\Br)c1ccc2c(c1)OCO2 | > 100 µM | > 100 µM | > 100 µM | > 100 µM | > 100 µM | > 100 µM | > 100 µM |  | > 100 µM | > 100 µM |  |  |  |  |  |  |  |  |  | 
COc1ccc(C2=NN(C(C)=O)C(c3ccc(Oc4ccnc5cc(Cl)ccc45)c(OC)c3)C2)cc1 (stereo not drawn) | 13.1 µM | > 100 µM |  | > 100 µM | 37.2 µM |  | > 100 µM | 1.66 µM | 6.16 µM | > 100 µM | > 100 µM | 7.57 µM | 3.63 µM | 5.02 µM |  | > 100 µM | 5.35 µM | 7.52 µM |  | 3.37 µM
C/C(=C\C(C[C@](C)(O)C(O)CCC#C[Si](C)(C)C)S(=O)(=O)c1ccccc1)CC/C=C/CO[Si](C)(C)C(C)(C)C (stereo partly drawn) | 39.2 µM | 33 µM | 27.9 µM | 33.6 µM | 31.1 µM |  | 19 µM |  |  | 33.9 µM |  |  |  |  |  |  |  |  |  | 
CCC[CH2][Sn]1([CH2]CCC)[O]CC[S]1 | 3.59 µM | 0.187 µM | 3 µM | 2.68 µM | 2.76 µM | 0.898 µM | 2.12 µM | 0.61 µM | 1.92 µM | 1.56 µM |  | 0.041 µM | 1.19 µM | 1.42 µM | 0.238 µM | 0.818 µM | 0.392 µM |  | 1.57 µM | 2.09 µM
